Results: patent US10689377B2 (Mirati Therapeutics, Inc., priority 2017, dated 2020)
Counter-ions that a name gives are not always drawn.

Target: KRas G12C (Homo sapiens, UniProt P01116, G12C)
Assay: Cellular inhibition of KRas G12C measured by Phospho-ERK in NCI-H358 cells
Assay type: cell-based
Conditions: pERK(Thr202/Tyr204) normalized with GAPDH, NCI-H358 cells, 3 hours; read-out: IC50
Summary of the method: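 Readout is pERK(Thr202/Tyr204) immunofluorescence normalized to GAPDH, expressed as percent of DMSO control and fitted with a 4-parameter curve for IC50. Attached NCI-H358 cells received compound for 3 hours in 0.5% DMSO, followed by fixation and methanol permeabilization.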

Chain of KRas G12C (P01116 1-188 isoform P01116-2 G12C): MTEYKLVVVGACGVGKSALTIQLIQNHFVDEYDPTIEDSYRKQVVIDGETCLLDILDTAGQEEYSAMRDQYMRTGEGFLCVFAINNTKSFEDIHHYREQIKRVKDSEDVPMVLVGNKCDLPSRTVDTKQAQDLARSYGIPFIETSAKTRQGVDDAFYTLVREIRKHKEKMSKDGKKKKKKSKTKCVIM

| SMILES | IC50 |
| --- | --- |
| C=CC(=O)N1CCN(c2nc(O[C@H](C)CN3CC[C@H](OC)C3)nc3c2CCN(c2cc(O)cc4ccccc24)C3)CC1 [Example 64, 1-(4-(7-(3-hydroxynaphthalen-1-yl)-2-(((R)-1-((S)-3-methoxypyrrolidin-1-yl)propan-2-yl)oxy)-5,6,7,8-tetrahydropyrido[3,4-d]pyrimidin-4-yl)piperazin-1-yl)prop-2-en-1-one] | 0.1 to 1000 nM |
| C=CC(=O)N1CCN(c2nc(OCCN(C)C)nc3c2CCN(c2cc(O)cc4ccccc24)C3)C(CO)C1 (stereo not shown) [Example 53, 1-(4-(2-(2-(dimethylamino)ethoxy)-7-(3-hydroxynaphthalen-1-yl)-5,6,7,8-tetrahydropyrido[3,4-d]pyrimidin-4-yl)-3-(hydroxymethyl)piperazin-1-yl)prop-2-en-1-one] | > 1000 nM |
| C=CC(=O)N1CCN(c2nc(O[C@H]3CCCN(C)C3)nc3c2CCN(c2cc(O)cc4ccccc24)C3)CC1 [Example 66, (S)-1-(4-(7-(3-hydroxynaphthalen-1-yl)-2-((1-methylpiperidin-3-yl)oxy)-5,6,7,8-tetrahydropyrido[3,4-d]pyrimidin-4-yl)piperazin-1-yl)prop-2-en-1-one] | > 1000 nM |
| C=CC(=O)N1CCN(c2nc(OCCN3CCC[C@@H](OC)C3)nc3c2CCN(c2cc(O)cc4ccccc24)C3)CC1 [Example 99, (R)-1-(4-(7-(3-hydroxynaphthalen-1-yl)-2-(2-(3-methoxypiperidin-1-yl)ethoxy)-5,6,7,8-tetrahydropyrido[3,4-d]pyrimidin-4-yl)piperazin-1-yl)prop-2-en-1-one] | > 1000 nM |
| C=CC(=O)N1CCN(c2nc(OCCCN3CCOCC3)nc3c2CCN(c2cc(O)ccc2F)C3)CC1 [Example 42, 1-(4-(7-(2-fluoro-5-hydroxyphenyl)-2-(3-morpholinopropoxy)-5,6,7,8-tetrahydropyrido[3,4-d]pyrimidin-4-yl)piperazin-1-yl)prop-2-en-1-one] | > 1000 nM |
| C=CC(=O)N1CCN(c2nc(OCCN(C)C)nc3c2CCN(c2ccccc2C(F)(F)F)C3)CC1CC#N (stereo not shown) [Example 279, 2-(1-acryloyl-4-(2-(2-(dimethylamino)ethoxy)-7-(2-(trifluoromethyl)phenyl)-5,6,7,8-tetrahydropyrido[3,4-d]pyrimidin-4-yl)piperazin-2-yl)acetonitrile] | 0.1 to 1000 nM |
| C=CC(=O)N1CCN(c2nc(OCCN(CC)CC)nc3c2CCN(c2ccccc2C(F)(F)F)C3)CC1CC#N (stereo not shown) [Example 300, 2-[4-[2-[2-(diethylamino)ethoxy]-7-[2-(trifluoromethyl)phenyl]-6,8-dihydro-5H-pyrido[3,4-d]pyrimidin-4-yl]-1-prop-2-enoyl-piperazin-2-yl]acetonitrile] | 0.1 to 1000 nM |
| C=CC(=O)N1CCN(c2nc(OCCN(C)C)nc3c2CCN(c2cc(O)cc4ccccc24)C3C)CC1 (stereo not shown) [Example 47, 1-(4-(2-(2-(dimethylamino)ethoxy)-7-(3-hydroxynaphthalen-1-yl)-8-methyl-5,6,7,8-tetrahydropyrido[3,4-d]pyrimidin-4-yl)piperazin-1-yl)prop-2-en-1-one] | > 1000 nM |
| C=CC(=O)N1CCN(c2nc(OC[C@@H]3CCN(C)C3)nc3c2CCN(c2cc(O)cc4ccccc24)C3)CC1 [Example 110, (R)-1-(4-(7-(3-hydroxynaphthalen-1-yl)-2-((1-methylpyrrolidin-3-yl)methoxy)-5,6,7,8-tetrahydropyrido[3,4-d]pyrimidin-4-yl)piperazin-1-yl)prop-2-en-1-one] | 0.1 to 1000 nM |
| C=CC(=O)N1CCN(c2nc(O[C@H](C)CN(C)C)nc3c2CCN(c2cc(O)c(F)c4ccccc24)C3)CC1 [Example 124, (R)-1-(4-(2-((1-(dimethylamino)propan-2-yl)oxy)-7-(4-fluoro-3-hydroxynaphthalen-1-yl)-5,6,7,8-tetrahydropyrido[3,4-d]pyrimidin-4-yl)piperazin-1-yl)prop-2-en-1-one] | > 1000 nM |
| C=CC(=O)N1CCN(c2nc(N3CCN(CCO)CC3)nc3c2CCN(c2cc(O)cc4ccccc24)C3)CC1 [Example 26, 1-(4-(2-(4-(2-hydroxyethyl)piperazin-1-yl)-7-(3-hydroxynaphthalen-1-yl)-5,6,7,8-tetrahydropyrido[3,4-d]pyrimidin-4-yl)piperazin-1-yl)prop-2-en-1-one] | > 1000 nM |
| C=CC(=O)N1CCN(c2nc(OCCCCN3CCOCC3)nc3c2CCN(c2cc(O)cc4ccccc24)C3)CC1 [Example 35, 1-(4-(7-(3-hydroxynaphthalen-1-yl)-2-(4-morpholinobutoxy)-5,6,7,8-tetrahydropyrido[3,4-d]pyrimidin-4-yl)piperazin-1-yl)prop-2-en-1-one trifluoroacetate] | > 1000 nM |
| C=CC(=O)N1CCN(c2nc(OC[C@@H]3CCCN3C)nc3c2CCN(c2c(C)c(C)cc4[nH]ccc24)C3)CC1 [Example 457, 1-[4-[7-(5,6-dimethyl-1H-indol-4-yl)-2-[[(2S)-1-methylpyrrolidin-2-yl]methoxy]-6,8-dihydro-5H-pyrido[3,4-d]pyrimidin-4-yl]piperazin-1-yl]prop-2-en-1-one] | 0.1 to 1000 nM |
| C=CC(=O)N1CCN(c2nc(O[C@@H](C)[C@@H]3CCCN3C)nc3c2CCN(c2cc(O)cc4ccccc24)C3)CC1 [Example 130, 1-(4-(7-(3-hydroxynaphthalen-1-yl)-2-((S)-1-((S)-1-methylpyrrolidin-2-yl)ethoxy)-5,6,7,8-tetrahydropyrido[3,4-d]pyrimidin-4-yl)piperazin-1-yl)prop-2-en-1-one] | 0.1 to 1000 nM |

Other lines, results leading:

| IC50 | SMILES |
| --- | --- |
| 0.1 to 1000 nM | C=CC(=O)N1CCN(c2nc(OC[C@@H]3CCCN3C)nc3c2CCN(c2ccc(F)c4ccccc24)C3)C[C@@H]1CC#N [Example 316, 2-((S)-1-acryloyl-4-(7-(4-fluoronaphthalen-1-yl)-2-(((S)-1-methylpyrrolidin-2-yl)methoxy)-5,6,7,8-tetrahydropyrido[3,4-d]pyrimidin-4-yl)piperazin-2-yl)acetonitrile] |
| > 1000 nM | C=CC(=O)N1CCN(c2nc(OC[C@@H]3CCCN3C)nc3c2CCN(c2nccc4ccccc24)C3)CC1CC#N (stereo partly drawn) [Example 258, 2-[4-[7-(1-isoquinolyl)-2-[[(2S)-1-methylpyrrolidin-2-yl]methoxy]-6,8-dihydro-5H-pyrido[3,4-d]pyrimidin-4-yl]-1-prop-2-enoyl-piperazin-2-yl]acetonitrile] |
| 0.1 to 1000 nM | C#CC[C@H]1CN(c2nc(OC[C@@H]3CCCN3C)nc3c2CCN(c2cccc4ccccc24)C3)CCN1C(=O)C=C [Example 358, 1-[(2S)-4-[2-[[(2S)-1-methylpyrrolidin-2-yl]methoxy]-7-(1-naphthyl)-6,8-dihydro-5H-pyrido[3,4-d]pyrimidin-4-yl]-2-prop-2-ynyl-piperazin-1-yl]prop-2-en-1-one] |
| 0.1 to 1000 nM | C=CC(=O)N1CCN(c2nc(OC[C@@H]3CCCN3C)nc3c2CCN(c2cc(O)cc4ccccc24)C3)C(CO)C1 (stereo partly drawn) [Example 169, 1-[3-(hydroxymethyl)-4-[7-(3-hydroxy-1-naphthyl)-2-[[(2S)-1-methylpyrrolidin-2-yl]methoxy]-6,8-dihydro-5H-pyrido [3,4-d]pyrimidin-4-yl]piperazin-1-yl]prop-2-en-1-one] |
| 0.1 to 1000 nM | C=CC(=O)N1CCN(c2nc(OC[C@@H]3CCCN3C)nc3c2CCN(c2cccc4c(F)cccc24)C3)CC1CC#N (stereo partly drawn) [Example 287, 2-[4-[7-(5-fluoro-1-naphthyl)-2-[[(2S)-1-methylpyrrolidin-2-yl]methoxy]-6,8-dihydro-5H-pyrido[3,4-d]pyrimidin-4-yl]-1-prop-2-enoyl-piperazin-2-yl]acetonitrile] |
| 0.1 to 1000 nM | Cc1cccc2cccc(N3CCc4c(nc(OC[C@@H]5CCCN5C)nc4N4CCN(C(=O)C5=CC(=O)CC5)[C@@H](CC#N)C4)C3)c12 [Example 497, 2-((S)-4-(7-(8-methylnaphthalen-1-yl)-2-(((S)-1-methylpyrrolidin-2-yl)methoxy)-5,6,7,8-tetrahydropyrido[3,4-d]pyrimidin-4-yl)-1-(3-oxocyclopent-1-ene-1-carbonyl)piperazin-2-yl)acetonitrile] |
| 0.1 to 1000 nM | C=C(F)C(=O)N1CCN(c2nc(OC[C@@H]3CCCN3C)nc3c2CCN(c2cccc4cccc(CC)c24)C3)C[C@@H]1CC#N [Example 608, 2-[(2S)-4-[7-(8-ethyl-1-naphthyl)-2-[[(2S)-1-methylpyrrolidin-2-yl]methoxy]-6,8-dihydro-5H-pyrido[3,4-d]pyrimidin-4-yl]-1-(2-fluoroprop-2-enoyl)piperazin-2-yl]acetonitrile] |
| 0.1 to 1000 nM | C=CC(=O)N1CCN(c2nc(OC[C@H]3CN(C)CCO3)nc3c2CCN(c2cccc4ccccc24)C3)CC1CC#N (stereo partly drawn) [Example 443, 2-(1-Acryloyl-4-(2-(((R)-4-methylmorpholin-2-yl)methoxy)-7-(naphthalen-1-yl)-5,6,7,8-tetrahydropyrido[3,4-d]pyrimidin-4-yl)piperazin-2-yl)acetonitrile] |
| 0.1 to 1000 nM | C=CC(=O)N1CCN(c2nc(OC[C@H]3CN(C)CCN3)nc3c2CCN(c2cccc4ccccc24)C3)CC1CC#N (stereo partly drawn) [Example 224, 2-(1-acryloyl-4-(2-(((R)-4-methylpiperazin-2-yl)methoxy)-7-(naphthalen-1-yl)-5,6,7,8-tetrahydropyrido[3,4-d]pyrimidin-4-yl)piperazin-2-yl)acetonitrile] |
| > 1000 nM | C=CC(=O)N1CCN(c2nc(OC[C@@H]3CCCN3C)nc3c2CCN(c2cccc4ccc(OC)cc24)C3)CC1CC#N (stereo partly drawn) [Example 255, 2-[4-[7-(7-methoxy-1-naphthyl)-2-[[(2S)-1-methylpyrrolidin-2-yl]methoxy]-6,8-dihydro-5H-pyrido[3,4-d]pyrimidin-4-yl]-1-prop-2-enoyl-piperazin-2-yl]acetonitrile] |
| 0.1 to 1000 nM | C=CC(=O)N1CCN(c2nc(OC[C@@H]3CN(C)CCN3)nc3c2CCN(c2cccc4ccccc24)C3)CC1CC#N (stereo partly drawn) [Example 223, 2-(1-acryloyl-4-(2-(((S)-4-methylpiperazin-2-yl)methoxy)-7-(naphthalen-1-yl)-5,6,7,8-tetrahydropyrido[3,4-d]pyrimidin-4-yl)piperazin-2-yl)acetonitrile] |
